Earlier results, collected in article PMC9798770 (ACS Omega, 2022).

Tested on: SARS-CoV-2

Cc1ccc(N)cc1C(=O)N[C@H](C)c1cccc2ccccc12 [GRL0617]
EC50 (read-out: EC50, antiviral activity): ~20 µM

C[C@H](c1cccc2ccccc12)N(C)Cc1ccc(O)cc1 [Jun9-72-2]
antiviral activity compared with GRL0617: higher
